In general, inhibition refers to the share of the control response that was lost under treatment. By IC50 is commonly meant the concentration at which inhibition is half-maximal.

Data set [1] deals with T1, Prostaglandin E synthase (Mus musculus) (UniProt Q9JM51).
T1 sequence (whole entry): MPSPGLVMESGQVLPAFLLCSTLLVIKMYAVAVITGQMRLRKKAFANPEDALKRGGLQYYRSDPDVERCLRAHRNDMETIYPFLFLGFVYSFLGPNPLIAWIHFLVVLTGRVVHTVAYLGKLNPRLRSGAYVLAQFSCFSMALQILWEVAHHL
Kind of data set: Inhibition of mPGES-1 in mouse RAW264.7 cells assessed as reduction in LPS-induced PGE2 production at 1 uM after 24 hrs relative to control. It counts as cell-based.

Another data set addresses T2, Prostaglandin E synthase (Mus musculus, UniProt Q9JM51).
T2 sequence (Q9JM51 whole entry): T1 sequence (whole entry)
Briefly: Inhibition of mPGES-1 in mouse RAW264.7 cells assessed as reduction in LPS-induced PGE2 production after 24 hrs. It counts as cell-based.

The target in data set [2] is T3, Prostaglandin G/H synthase 2 (Homo sapiens, UniProt P35354).
T3 sequence (P35354 whole entry): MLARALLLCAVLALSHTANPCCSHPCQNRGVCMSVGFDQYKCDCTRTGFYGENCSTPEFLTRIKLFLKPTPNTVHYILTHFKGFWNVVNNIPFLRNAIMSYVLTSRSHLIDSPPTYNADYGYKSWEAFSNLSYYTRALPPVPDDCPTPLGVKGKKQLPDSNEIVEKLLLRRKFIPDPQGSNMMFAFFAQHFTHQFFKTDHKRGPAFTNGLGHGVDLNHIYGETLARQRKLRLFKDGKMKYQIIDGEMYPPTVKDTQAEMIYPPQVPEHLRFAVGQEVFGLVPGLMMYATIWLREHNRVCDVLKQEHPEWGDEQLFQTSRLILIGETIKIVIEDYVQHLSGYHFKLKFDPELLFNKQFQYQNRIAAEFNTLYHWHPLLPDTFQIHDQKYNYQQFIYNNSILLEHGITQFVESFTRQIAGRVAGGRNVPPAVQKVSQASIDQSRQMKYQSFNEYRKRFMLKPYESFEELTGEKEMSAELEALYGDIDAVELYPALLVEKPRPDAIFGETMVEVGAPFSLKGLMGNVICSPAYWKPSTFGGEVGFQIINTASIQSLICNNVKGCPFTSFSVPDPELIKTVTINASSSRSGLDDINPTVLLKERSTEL
Briefly: Inhibition of recombinant human COX2 by enzyme immunoassay.

A further data set is filed under the species Mus musculus. Kind of data set: Cytotoxicity against LPS-stimulated mouse RAW264.7 cells assessed as concentration required for reduction in cell viability after 24 hrs by MTT assay. It counts as toxicity, cell-based. The following applies: raw264.7, 24 h.
The target in data set [3] is T4, Prostaglandin G/H synthase 1 (Ovis aries, UniProt P05979).
T4 sequence (P05979 whole entry): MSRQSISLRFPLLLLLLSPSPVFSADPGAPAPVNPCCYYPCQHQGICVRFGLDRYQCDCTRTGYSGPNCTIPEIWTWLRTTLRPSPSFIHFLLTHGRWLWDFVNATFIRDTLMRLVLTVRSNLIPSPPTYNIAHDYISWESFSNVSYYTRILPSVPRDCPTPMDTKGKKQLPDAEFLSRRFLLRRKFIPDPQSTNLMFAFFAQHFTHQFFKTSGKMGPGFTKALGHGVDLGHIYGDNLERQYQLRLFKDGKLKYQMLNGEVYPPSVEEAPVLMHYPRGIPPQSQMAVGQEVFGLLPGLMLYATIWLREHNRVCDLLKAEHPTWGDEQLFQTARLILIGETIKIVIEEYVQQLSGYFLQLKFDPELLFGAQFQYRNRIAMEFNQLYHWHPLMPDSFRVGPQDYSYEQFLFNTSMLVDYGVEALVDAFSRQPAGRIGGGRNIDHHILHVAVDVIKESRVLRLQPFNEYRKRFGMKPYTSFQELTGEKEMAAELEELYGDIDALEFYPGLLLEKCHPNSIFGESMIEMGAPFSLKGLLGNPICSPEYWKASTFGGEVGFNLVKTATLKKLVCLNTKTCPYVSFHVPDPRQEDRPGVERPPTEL
Kind of data set: Inhibition of ovine COX1 by enzyme immunoassay.

The target of data set [4] is T1, Prostaglandin E synthase (Mus musculus). Kind of data set: Inhibition of mPGES-1 in mouse RAW264.7 cells assessed as reduction in LPS-induced PGE2 production at 10 uM after 24 hrs relative to control. It counts as cell-based.
Data set [5] is described as follows: Metabolic stability in human liver microsomes assessed as compound remaining after 30 mins. To be noted: read-out: Stability. It counts as ADME. For orientation: Liver microsomes are a subcellular fraction often used to study metabolism.
In data set [6] the target is T1, Prostaglandin E synthase (Mus musculus). Kind of data set: Inhibition of mPGES-1 in mouse RAW264.7 cells assessed as reduction in LPS-induced PGE2 production at 3 uM after 24 hrs relative to control. It counts as cell-based.
Data set [7] in a line: Metabolic stability in dog liver microsomes assessed as compound remaining after 30 mins. It counts as ADME, Canis lupus familiaris. The following applies: read-out: Stability.
Data set [8] in a line: Metabolic stability in mouse liver microsomes assessed as compound remaining after 30 mins. It counts as ADME. The following applies: read-out: Stability.
Data set [9] in a line: Metabolic stability in rat liver microsomes assessed as compound remaining after 30 mins. It counts as ADME. To be noted: read-out: Stability.

For `COc1ccc(S(=O)(=O)N(Nc2ccccc2)C(=O)Oc2ccccc2OC)cc1`, in data set [1], the inhibition was determined as 63%. Also, the IC50 at Prostaglandin E synthase is 690 nM; in [2], greater than 1000 nM; in [3] it was greater than 1000 nM. The Activity in the data set filed under Mus musculus was greater than 10 µM.

For the molecule `O=C(Oc1ccc2c(c1)CCC2)N(NS(=O)(=O)c1ccc(Cl)cc1)c1ccccc1`, in [1], the inhibition was 73%. Also, the concentration for half-maximal inhibition (IC50) was 790 nM on Prostaglandin E synthase, greater than 1000 nM in data set [2] and greater than 1000 nM in data set [3]. Moreover, in the data set filed under Mus musculus, the Activity is greater than 10 µM.

With `O=C(Oc1ccc2c(c1)CCC2)N(Nc1ccccc1)S(=O)(=O)c1ccc(Cl)cc1`, the inhibition in data set [1] was found to be 75%. Also, the IC50 at Prostaglandin E synthase is 550 nM; in data set [2], greater than 1000 nM; in data set [3], greater than 1000 nM. Further, in the data set filed under Mus musculus, the Activity is greater than 10 µM.

As to `COc1ccc(S(=O)(=O)NN(C(=O)Oc2ccccc2OC)c2ccccc2)cc1`, the inhibition in data set [1] worked out at 0%; in [4] it was 18%. For the same molecule, at Prostaglandin E synthase, the half-maximal inhibitory concentration (IC50) is greater than 10000 nM. Besides, in the data set listed under Mus musculus, the Activity was greater than 10 µM.

With `COc1ccc(CCN(C)CCCC(C#N)(c2ccc(OC)c(OC)c2)C(C)C)cc1OC` (stereo unspecified), the remaining at 0.5 h in [5] was less than 5%.

For `CS(=O)(=O)Nc1ccc([N+](=O)[O-])cc1OC1CCCCC1` [NS-398], the IC50 at Prostaglandin E synthase is 7 nM. In addition, the inhibition in [6] was determined as 86%.

Take `COc1ccc(S(=O)(=O)N(Nc2ccccc2)C(=O)Oc2ccc(OCc3ccccc3)cc2)cc1`: the remaining at 0.5 h in [7] stood at 48.5%; in [8], 42.2%; in data set [5], 66.6%; in data set [9] it was 16.3%. Also, the inhibition in data set [1] came to 84%. For the same molecule, the values for the IC50 (on Prostaglandin E synthase; in data set [2]; in data set [3]) were 60 nM, greater than 1000 nM and greater than 1000 nM, respectively. Moreover, the Activity in the data set listed under Mus musculus was greater than 10 µM.

(Values after ChEMBL document CHEMBL3860094, “Synthesis, structure determination, and biological evaluation of phenylsulfonyl hydrazide derivatives as potential anti-inflammatory agents” (Bioorg Med Chem Lett, 2016).)
